Reference: patent US7223583B2, “Antithrombotic thrombin variants” (Emory University, priority 2001, dated 2007)
Residues, ends and D or L forms follow the SMILES beside them. *: point of attachment. pNA = O=[N+]([O-])c1ccc(N*)cc1

Experiments:
Type in all cases: biochemical
[1] = target: T1, human thrombin, wild-type (WT) (Homo sapiens, UniProt P00734); experiment: Hydrolysis of chromogenic substrates (release of p-NA at 405 nm), Example 3; details: 5 mM Tris, 0.1% PEG, 200 mM NaCl, pH 8.0, 25° C.
T1 construct: the B chain of thrombin commences with I1 and extends to E259; made in house
Experimental: Citrated plasma was diluted 1:1 with isotonic saline, and the thrombin analogs were diluted with 0.1 M NaCl, 0.01 M CaCl2, 0.02 M Tris, pH 7.3 prior to testing. 100 μl of thrombin analog was then added to 200 μl of baboon plasma and the clotting time was determined using a fibrometer.
(§1) The chromogenic substrates FPR and LDPR were synthesized by solid phase, purified by HPLC and analyzed by mass spectrometry. Progress curves of the release of p-NA following the hydrolysis of chromogenic substrate were measured at 405 nm as a function of substrate concentration and analyzed to extract the values of kcat/Km and kcat, after proper correction for product inhibition. […] Biotechnol.

[2] = target: T2, human thrombin, variant W215A, SEQ ID NO: 1 (Homo sapiens, UniProt P00734, W590A); experiment: as above; details: 5 mM Tris, 0.1% PEG, 200 mM NaCl, pH 8.0, 25° C.
T2 construct: The B chain commences with I1 and extends to E259; made in house; host or cells: baby hamster kidney cells
Experimental: Site-directed mutagenesis of human α-thrombin was carried out in a HPC4-pNUT expression vector as described in Arosio et al. Biochemistry 39: 8095-8101 (2000) and incorporated herein by reference in its entirety, using overlap extension PCR with two mutant oligonucleotides: upstream: 5-GGGCATCGTCTCAXXXGGTGAAGGCTG TG-3(SEQ ID NO: 7); downstream: 5-CACAGCCTTCACCXXXTGAGACGATGCCC-3 (SEQ ID NO: 8) and two flanking oligonucleotide primers, BgIII (upstream): 5-[…]-3 (SEQ ID NO: 9 and; EcoRI (downstream): 5-[…]-3 (SEQ ID NO: 10). For the generation of the double mutant variant W215A/E217A (WE) thrombin, the forward primer 5′-[…]-3′ (SEQ ID NO: 11) and the reverse primer 5′-[…]-3′ (SEQ ID NO: 12) were used. Expression of the variant thrombins was carried out in baby hamster kidney cells as described in Guinto et al. Proc. Natl. Acad. Sci. U.S.A. 96: 1852-1857 (1999) incorporated herein by reference in its entirety. The enzyme was activated with the prothrombinase complex for about 30 mins. at 37° C. and then purified to homogeneity by monoS FPLC using a linear gradient of 0.05 to 0.5 M NaCl in 5 mM MES (pH 6) at room temperature. Mutants were further checked for incomplete refolding or autolytic digestion by N-terminal amino acid sequencing. Electrospray mass spectrometry yielded molecular weights consistent with the mutations introduced and indicated identical glycosylation in wild-type and mutant constructs.
as §1, with “All assays were carried out under experimental conditions of 5 mM Tris, 0.1% PEG, 145 mM NaCl, pH 7.4 at 37° C., unless otherwise specified. The” for “The”, “Biotechnol. 15: 146-149 (1997) and incorporated herein by reference in its entirety.” for “Biotechnol.”

[3] = target: T1, human thrombin, wild-type (WT); experiment: Hydrolysis of chromogenic substrate (progress curves of the release of p-nitroaniline at 405 nm), Example 4; details: 5 mM Tris, 0.1% PEG, 145 mM NaCl, pH 7.4, 37° C.
Description: WT, W215A and WE variant thrombins were expressed, purified, and characterized in detail as described by Cantwell & Di Cera. J. Biol. Chem. 275: 39827-39830 (2000), incorporated herein by reference in its entirety. WE was stored in aliquots frozen until used in the thrombosis or coagulation experiments. To confirm that injection of variant thrombin WE would be at least as safe as injection of WT in baboons, the procoagulant activities of the two thrombins were compared in baboon plasma prepared by pooling citrated plasma samples from five animals. Citrated plasma was diluted 1:1 with isotonic saline, and the thrombin analogs were diluted with 0.1 M NaCl, 0.01 M CaCl2, 0.02 M Tris, pH 7.3 prior to testing. 100 μl of thrombin analog was then added to 200 μl of baboon plasma and the clotting time was determined using a fibrometer. […]
(§2) All assays were carried out under experimental conditions of 5 mM Tris, 0.1% PEG, 145 mM NaCl, pH 7.4 at 37° C. […] The values of kcat/Km and kcat were obtained from the analysis of progress curves of the release of p-nitroaniline (measured at 405 nm) as a function of substrate concentration taking into account product inhibition, when present. […] The inhibition of thrombin by antithrombin III in the presence of heparin, and the activation of protein C in the presence or absence of rabbit thrombomodulin were carried out and analyzed as described in Dang et al. Nat. […]

[4] = target: T3, human thrombin, variant E217A (Homo sapiens, UniProt P00734, E592A); experiment: as above; details: E217A; 5 mM Tris, 0.1% PEG, 145 mM NaCl, pH 7.4, 37° C.
T3 construct: the B chain of thrombin commences with I1 and extends to E259
Experimental: (§3) All assays were carried out under experimental conditions of 5 mM Tris, 0.1% PEG, 145 mM NaCl, pH 7.4 at 37° C. The chromogenic substrates H-D-Phe-Pro-Arg-p-nitroanilide specific for thrombin and H-D-Asp-Arg-Arg-p-nitroanilide specific for activated protein C were purchased from Midwest Bio-Tech (Carmel, Ind.). The values of kcat/Km and kcat were obtained from the analysis of progress curves of the release of p-nitroaniline (measured at 405 nm) as a function of substrate concentration taking into account product inhibition, when present. The interaction of thrombin with fibrinogen and fibrin was studied in terms of the release of fibrinopeptides A and B as described by Vindigni & Di Cera. Biochemistry 35: 4417-4426 (1996) incorporated herein by reference in its entirety. The interaction of thrombin with PAR-1 was studied from the kinetics of cleavage of a soluble fragment corresponding to the extracellular portion of the receptor, as detailed in Arosio et al. Biochemistry 39: 8095-8101 (2000) incorporated herein by reference in its entirety. The inhibition of thrombin by antithrombin III in the presence of heparin, and the activation of protein C in the presence or absence of rabbit thrombomodulin were carried out and analyzed as described in Dang et al. Nat. Biotechnol. 15: 146-149 (1997).

[5] = tested on: human thrombin, variant E217A; experiment: as above; details: E217A thrombin mutant (Gibbs et al.)
Experimental: as §3

[6] = target: T4, human thrombin, variant W215A/E217A (WE), SEQ ID NO: 3 (Homo sapiens, UniProt P00734, E592A/W590A); experiment: as above; details: W215A/E217A (WE); 5 mM Tris, 0.1% PEG, 145 mM NaCl, pH 7.4, 37° C.
T4 construct: The B chain commences with I1 and extends to E259; made in house; host or cells: baby hamster kidney cells
Experimental: (§4) Site-directed mutagenesis of human α-thrombin was carried out in a HPC4-pNUT expression vector as described in Arosio et al. Biochemistry 39: 8095-8101 (2000) and incorporated herein by reference in its entirety, using overlap extension PCR with two mutant oligonucleotides: upstream: 5-GGGCATCGTCTCAXXXGGTGAAGGCTG TG-3(SEQ ID NO: 7); downstream: 5-CACAGCCTTCACCXXXTGAGACGATGCCC-3 (SEQ ID NO: 8) and two flanking oligonucleotide primers, BgIII (upstream): 5-[…]-3 (SEQ ID NO: 9 and; EcoRI (downstream): 5-[…]-3 (SEQ ID NO: 10). For the generation of the double mutant variant W215A/E217A (WE) thrombin, the forward primer 5′-[…]-3′ (SEQ ID NO: 11) and the reverse primer 5′-[…]-3′ (SEQ ID NO: 12) were used. […]
as §2

[7] = tested on: human thrombin, variant W215A/E217A (WE), SEQ ID NO: 3; experiment: as above; details: W215A/E217A (WE) thrombin double mutant
Experimental: as §4, §2

[8] = kcat could not be estimated due to the very high Km

Structure (SMILES) | kcat/Km (LDPR) [1, 8] [M⁻¹ s⁻¹] | kcat/Km (LDPR) [2, 8] [M⁻¹ s⁻¹] | kcat (FPR) [1] [s⁻¹] | kcat/Km (FPR) [1] [M⁻¹ s⁻¹] | kcat (FPR) [2] [s⁻¹] | kcat/Km (FPR) [2] [M⁻¹ s⁻¹] | kcat/Km (H-D-Phe-Pro-Arg-p-nitroanilide) [3] [M⁻¹ s⁻¹] | kcat/Km (H-D-Phe-Pro-Arg-p-nitroanilide) [4] [M⁻¹ s⁻¹] | drop of kcat/Km for the hydrolysis of H-D-Phe-Pro-Arg-p-nitroanilide [5] | kcat/Km (H-D-Phe-Pro-Arg-p-nitroanilide) [6] [M⁻¹ s⁻¹] | cleavage of H-D-Phe-Pro-Arg-p-nitroanilide compromised [7]
CC(C)C[C@H](N)C(=O)N[C@@H](CC(=O)O)C(=O)N1CCC[C@H]1C(=O)N[C@@H](CCCN=C(N)N)C(=O)Nc1ccc([N+](=O)[O-])cc1 [LDPR, H-L-Leu-Asp-Pro-Arg-p-nitroanilide] (H-LDPR-pNA) | 4.7e+06 ± 900000 | 25000 ± 1000 |  |  |  |  |  |  |  |  | 
NC(N)=NCCC[C@H](NC(=O)[C@@H]1CCCN1C(=O)[C@H](N)Cc1ccccc1)C(=O)Nc1ccc([N+](=O)[O-])cc1 [FPR, H-D-Phe-Pro-Arg-p-nitroanilide] |  |  | 56 ± 3 | 8.8e+07 ± 4e+06 | 43 ± 2 | 910000 ± 10000 | 9.7e+07 ± 5e+06 | 3.8e+06 ± 300000 | over 25 fold | 2800 ± 100 | over 30,000 fold
